Assay results reported in patent publication US11186588B2 (AYUMI PHARMACEUTICAL CORPORATION, priority 2017, dated 2021).

Legend:
[1] = biological target: Recombinant BRD4 (44-168) protein (Homo sapiens (Human), UniProt O60885); assay: BRD4-H4KAc4 binding assay (amplified luminescence proximity homogeneous assay, AlphaScreen); conditions: 10 uM
Description: In order to evaluate BRD4 inhibitory activity of the present compounds, BRD4-H4KAc4 binding assay was carried out by an amplified luminescence proximity homogeneous assay. The specific method is described below.
H4KAc4 peptide (available from Toray Research Center, Inc., sequence SGRGK(Ac)GGK(Ac)GLGK(Ac)GGAK(Ac)RHR-K(Biotin)-NH2) was dissolved in 1×Assay buffer to prepare 1 mM H4KAc4 peptide stock solution.
N-terminal His tag/C-terminal FLAG tag-fused type Recombinant BRD4 (44-168) protein (available from Active Motif, Cat No. 31380) was diluted with 1×Assay buffer to 1,250-fold to prepare 250 nM BRD4 solution.
1% DMSO solution (control) and 2 μL of each compound solution in each concentration were added to each well of AlphaPlate-384 (from PerkinElmer, Cat No. 6008350). Next, 2 μL of 250 nM BRD4 solution was added to each well of AlphaPlate-384. Further, 2 μL of 250 nM H4KAc4 peptide solution was added to each well of AlphaPlate-384. After addition of the 250 nM H4KAc4 peptide solution, the mixture was allowed to stand at room temperature under light shielding for 60 minutes, and 4 μL of AlphaScreen beads were added to each well of AlphaPlate-384. After addition of the AlphaScreen beads, the mixture was allowed to stand at room temperature under light shielding for 60 minutes, emission at 520-620 nm upon excitation at 680 nm was detected by EnVision multilabel counter (from PerkinElmer), and binding of BRD4 and H4KAc4 was detected. Incidentally, the evaluation of each compound was carried out in duplicate (2 well per 1 compound).
(§1) The BRD4 inhibition rate (%) was calculated by the following equation using Microsoft EXCEL 2010. BRD4 inhibition rate (%)=100−{(luminescence intensity average value of each compound added well)−(average value of luminescence intensity of blank well))/(average value of luminescence intensity of control well)−(average value of luminescence intensity of blank well)}×100

[2] = test system: NF-κB; assay: NF-κB reporter gene assay (TNF-α stimulated A549/NF-κB-luc cells); type: cell-based; conditions: Homo sapiens, TNF-α stimulation
Description: In order to evaluate NF-κB inhibitory activity of the present compounds, NF-κB reporter gene assay was carried out. The specific method is described below.
Gene recombinant human TNF-α (available from R&D systems, Cat No. 210-TA) was dissolved in D-PBS(−) (available from Wako Pure Chemical Industries, Ltd., Cat No. 293-72601) to prepare 100 μg/mL of TNF-α solution stock solution. 100 μg/mL of the TNF-α solution stock solution was diluted with the culture medium to prepare 10 ng/mL of TNF-α solution.
A549/NF-κB-luc cells (available from Panomics, Cat No. LR0051) were prepared at 375,000 cells/mL in the culture medium. The 375,000 cells/mL A549/NF-κB-luc cell suspension was seeded at 80 μL each on a white 96-well plate (available from Greiner, Cat No. 655073). One hour after seeding the cells, 10 μL of 2% DMSO solution (control) and each compound solution in each concentration were added to each well of the 96-well plate. One hour after the addition of each compound solution, 10 ng/mL of the TNF-α solution (10 μL) was added to each well of the 96-well plate. Three hours after the addition of 10 ng/mL of the TNF-α solution, 100 μL of Steady-Glo reagent (available from Promega, Cat No. E2510) was added to each well of the 96-well plate. After 30 to 90 minutes of the addition of the Steady-Glo reagent, the luminescence intensity of each well was detected by EnVision multilabel counter (available from PerkinElmer).
as §1, with “NF-κB” for “The BRD4”, “NF-κB” for “BRD4”, “well)}×100 In addition, IC50 values were calculated from the calculated NF-κB inhibition rate (%) using curve fitting software XLfit (available from IDBS).” for “well)}×100”

inhibition at 10 µM [1] [%]	IC50 [2] [µM]	SMILES
101	3.1	Cc1sc2c(c1C)C(c1ccccc1)=NNc1nnc(C)n1-2 [Example 27, 2,3,9-trimethyl-4-phenyl-6H-thieno[2,3-e][1,2,4]triazolo[3,4-c][1,2,4]triazepine]
101	0.265	Cc1sc2c(c1C)C(c1ccccc1)=NN(Cc1ccccc1)c1nnc(C)n1-2 [Example 29, 6-benzyl-2,3,9-trimethyl-4-phenyl-6H-thieno[2,3-e][1,2,4]triazolo[3,4-c][1,2,4]triazepine]
99.2	0.0872	COc1cccc(CN2N=C(c3ccccc3)c3c(sc(C)c3C)-n3c(C)nnc32)c1 [Example 33, 6-(3-methoxybenzyl)-2,3,9-trimethyl-4-phenyl-6H-thieno[2,3-e][1,2,4]triazolo[3,4-c][1,2,4]triazepine]
100	0.612	COc1ccccc1CN1N=C(c2ccc(Cl)cc2)c2c(sc(C)c2C)-n2c(C)nnc21 [Example 34, 4-(4-chlorophenyl)-6-(2-methoxybenzyl)-2,3,9-trimethyl-6H-thieno[2,3-e][1,2,4]triazolo[3,4-c][1,2,4]triazepine]
100	0.401	Cc1sc2c(c1C)C(c1ccc(Cl)cc1)=NN(Cc1ccc(Cl)cn1)c1nnc(C)n1-2 [Example 36, 4-(4-chlorophenyl)-6-((5-chloropyridin-2-yl)methyl)-2,3,9-trimethyl-6H-thieno[2,3-e][1,2,4]triazolo[3,4-c][1,2,4]triazepine]
100	0.62	Cc1sc2c(c1C)C(c1ccc(Cl)cc1)=NN(Cc1cncc(Cl)c1)c1nnc(C)n1-2 [Example 39, 4-(4-chlorophenyl)-6-((5-chloropyridin-3-yl)methyl)-2,3,9-trimethyl-6H-thieno[2,3-e][1,2,4]triazolo[3,4-c][1,2,4]triazepine]
100	0.699	Cc1sc2c(c1C)C(c1ccc(Cl)cc1)=NN(Cc1cc(Cl)ccn1)c1nnc(C)n1-2 [Example 40, 4-(4-chlorophenyl)-6-((4-chloropyridin-2-yl)methyl)-2,3,9-trimethyl-6H-thieno[2,3-e][1,2,4]triazolo[3,4-c][1,2,4]triazepine]
100	1.15	Cc1sc2c(c1C)C(c1ccc(Cl)cc1)=NN(Cc1ccnc(F)c1)c1nnc(C)n1-2 [Example 42, 4-(4-chlorophenyl)-6-((2-fluoropyridin-4-yl)methyl)-2,3,9-trimethyl-6H-thieno[2,3-e][1,2,4]triazolo[3,4-c][1,2,4]triazepine]
100	1.83	Cc1sc2c(c1C)C(c1ccc(Cl)cc1)=NN(Cc1cnccc1Cl)c1nnc(C)n1-2 [Example 43, 4-(4-chlorophenyl)-6-((4-chloropyridin-3-yl)methyl)-2,3,9-trimethyl-6H-thieno[2,3-e][1,2,4]triazolo[3,4-c][1,2,4]triazepine]
99.3	9.85	Cc1sc2c(c1C)C(c1ccc(Cl)cc1)=NN(CCc1c[nH]c3ccccc13)c1nnc(C)n1-2 [Example 44, 6-(2-(1H-indol-3-yl)ethyl)-4-(4-chlorophenyl)-2,3,9-trimethyl-6H-thieno[2,3-e][1,2,4]triazolo[3,4-c][1,2,4]triazepine]
99.9	0.429	Cc1sc2c(c1C)C(c1ccc(Cl)cc1)=NN(Cc1cccs1)c1nnc(C)n1-2 [Example 45, 4-(4-chlorophenyl)-2,3,9-trimethyl-6-(thiophen-2-ylmethyl)-6H-thieno[2,3-e][1,2,4]triazolo[3,4-c][1,2,4]triazepine]
100	0.683	COc1cccc(CN2N=C(c3ccc(Cl)cc3)c3c(sc(C)c3C)-n3c(C)nnc32)n1 [Example 46, 4-(4-chlorophenyl)-6-((6-methoxypyridin-2-yl)methyl)-2,3,9-trimethyl-6H-thieno[2,3-e][1,2,4]triazolo[3,4-c][1,2,4]triazepine]
100	0.554	COc1ccc(CN2N=C(c3ccc(Cl)cc3)c3c(sc(C)c3C)-n3c(C)nnc32)nc1 [Example 47, 4-(4-chlorophenyl)-6-((5-methoxypyridin-2-yl)methyl)-2,3,9-trimethyl-6H-thieno[2,3-e][1,2,4]triazolo[3,4-c][1,2,4]triazepine]
100	0.297	COc1ccnc(CN2N=C(c3ccc(Cl)cc3)c3c(sc(C)c3C)-n3c(C)nnc32)c1 [Example 48, 4-(4-chlorophenyl)-6-((4-methoxypyridin-2-yl)methyl)-2,3,9-trimethyl-6H-thieno[2,3-e][1,2,4]triazolo[3,4-c][1,2,4]triazepine]
100	0.355	COc1ccc(CN2N=C(c3ccc(Cl)cc3)c3c(sc(C)c3C)-n3c(C)nnc32)cn1 [Example 50, 4-(4-chlorophenyl)-6-((6-methoxypyridin-3-yl)methyl)-2,3,9-trimethyl-6H-thieno[2,3-e][1,2,4]triazolo[3,4-c][1,2,4]triazepine]
100	0.265	COc1ccncc1CN1N=C(c2ccc(Cl)cc2)c2c(sc(C)c2C)-n2c(C)nnc21 [Example 51, 4-(4-chlorophenyl)-6-((4-methoxypyridin-3-yl)methyl)-2,3,9-trimethyl-6H-thieno[2,3-e][1,2,4]triazolo[3,4-c][1,2,4]triazepine]
100	5.23	Cc1sc2c(c1C)C(c1ccc(Cl)cc1)=NN(Cc1cccc(N)c1)c1nnc(C)n1-2 [Example 52, 3-((4-(4-chlorophenyl)-2,3,9-trimethyl-6H-thieno[2,3-e][1,2,4]triazolo[3,4-c][1,2,4]triazepin-6-yl)methyl)aniline]
100	2.98	Cc1sc2c(c1C)C(c1ccc(Cl)cc1)=NN(Cc1cccc(O)c1)c1nnc(C)n1-2 [Example 53, 3-((4-(4-chlorophenyl)-2,3,9-trimethyl-6H-thieno[2,3-e][1,2,4]triazolo[3,4-c][1,2,4]triazepin-6-yl)methyl)phenol]
100	2.76	Cc1sc2c(c1C)C(c1ccc(Cl)cc1)=NN(Cc1cccc(N(C)C)c1)c1nnc(C)n1-2 [Example 55, 3-((4-(4-chlorophenyl)-2,3,9-trimethyl-6H-thieno[2,3-e][1,2,4]triazolo[3,4-c][1,2,4]triazepin-6-yl)methyl)-N,N-dimethylaniline]
100	0.942	CC(=O)Nc1cc(CN2N=C(c3ccc(Cl)cc3)c3c(sc(C)c3C)-n3c(C)nnc32)ccn1 [Example 56, N-(4-((4-(4-chlorophenyl)-2,3,9-trimethyl-6H-thieno[2,3-e][1,2,4]triazolo[3,4-c][1,2,4]triazepin-6-yl)methyl)pyridin-2-yl)acetamide]
100	0.558	Cc1sc2c(c1C)C(c1ccc(Cl)cc1)=NN(Cc1ccnc(N)c1)c1nnc(C)n1-2 [Example 57, 4-((4-(4-chlorophenyl)-2,3,9-trimethyl-6H-thieno[2,3-e][1,2,4]triazolo[3,4-c][1,2,4]triazepin-6-yl)methyl)pyridin-2-amine]
100	0.728	COc1ccc(CN2N=C(c3ccc(Cl)cc3)c3ccsc3-n3c(C)nnc32)cc1 [Example 58, 4-(4-chlorophenyl)-6-(4-methoxybenzyl)-9-methyl-6H-thieno[2,3-e][1,2,4]triazolo[3,4-c][1,2,4]triazepine]
